# Assay results reported in US20030118594A1, “STABLE FORMULATIONS OF MHC-PEPTIDE COMPLEXES” (priority 1995, published 2003).
# Like-named read-outs stand apart in the source and are kept apart here.
# Key:
# [1] = Aggregation assay by size-exclusion HPLC and SDS-PAGE; type: physicochemical; settings: DM concentration below 0.05%, FIG. 4, 5
# Procedure: Three non-ionic detergents (DM, OG, and Tween-80) were tested. The experiments were carried out as generally described in U.S. Pat. Nos. 5,130,297, 5,194,425, 5,260,422 and 5,284,935, all of which are incorporated herein by reference. Briefly, HLA-DR2 was purified from EBV-transformed lymphoblastoid cells [GM03107] obtained from the National Institute of General Medical Sciences human genetic mutant cell repository (Corinell Institute of Medical Research, NJ.). A triton X-100 cell lysate was prepared and applied to a L243 coupled sepharose-4B column and the bound DR2 was eluted in phosphate buffer containing 0.05% n-dodecyl β-D-maltoside (DM) detergent at pH 11.3. Fractions were immediately neutralized with 20% monobasic phosphate and the DR2 pool was collected through a DEAE ion exchange column in 20 mM phosphate buffer containing 0.5 M NaCl and 0.05% DM, pH 6.0. The flow through purified protein solution from the DEAE column was neutralized with 10% tribasic sodium phosphate, filtered through a 180 kD membrane and concentrated to 1 mg/ml. The final DR2 preparation was characterized by 13.5% SDS polyacrylamide gel electrophoresis followed by silver staining.
# To prepare the DR2-peptide complex, purified DR2 was dialyzed against 100 mM citrate buffer pH 6.0 containing 0.05% DM for 24 hours at 4° C. prior to the addition of MBP(83-102)Y^83 peptide. […]
# HLA-DR2 = test: Occupancy of MHC molecules with peptide (loading); type: binding, human; settings: DR2 and MBP(83-102)Y^83 complexes prepared in the named detergent
# Procedure: To prepare the DR2-peptide complex, purified DR2 was dialyzed against 100 mM citrate buffer pH 6.0 containing 0.05% DM for 24 hours at 4° C. prior to the addition of MBP(83-102)Y^83 peptide. The reaction mixture was incubated at 37° C. for 96 hours and free peptide was removed by Sephacryl S200 gel filtration.
# As noted in the figure, the occupancy of the MHC molecules (i.e., proportion of the molecules complexed with peptide) was 90% in DM, 40% in octylglucoside and 76% in Tween-80).
# mouse [2] = test: GLP Toxicology: Acute Range-finding; type: in vivo; settings: i.v., 400 ug/kg, bolus
# Procedure: (§1) Safety and toxicity studies were carried out for the intravenous administration of dodecyl-β-D-maltoside in various animal models.
# mouse [3] = test: GLP Toxicology: Subacute - full histo; type: in vivo; settings: i.v., QD14
# Procedure: as §1
# mouse [4] = test: Safety Pharmacology: Neuropharm profile; type: in vivo; settings: i.v., bolus
# Procedure: as §1
# rat = test: Safety Pharmacology: Diuretic Assay; type: in vivo; settings: i.v., bolus
# Procedure: as §1
# mouse [5] = test: Safety Pharmacology: Barbit Sleep Potent; type: in vivo; settings: i.v., bolus
# Procedure: as §1
# dog = test: Safety Pharmacology: Cardiovasc Effects; type: in vivo; settings: i.v.
# Procedure: as §1
# various animal models = test: Safety and toxicity studies, intravenous administration in various animal models; type: in vivo; settings: i.v. administration at various tested doses, summary of Table 1
# Procedure: as §1
# T-cells = test: Toxicity of detergents to T-cells; type: cell-based
# Procedure: A number of detergents were studied for their ability to solubilize human HLA-DR2 and MHC-peptide complexes. In addition the complexes prepared in the detergents were assayed for activity. A summary of structural and physical characteristics of various detergents used for solubilization of HLA-DR2 is presented in FIG. 1.
compound,measurement,setting,value
"CCCCCCCCCCCCO[C@@H]1O[C@H](CO)[C@@H](O[C@H]2O[C@H](CO)[C@@H](O)[C@H](O)[C@H]2O)[C@H](O)[C@H]1O [DM, dodecyl β-D maltoside]",aggregation level of DR2,[1],increased aggregation level of DR2
same,occupancy of the MHC molecules (proportion of the molecules complexed with peptide),HLA-DR2,90%
same,"Results, Acute Range-finding",mouse [2],poss kindey cortical
same,"Results, Subacute - full histo",mouse [3]; 4 ug/kg,No Eff @ necr/clin-path
same,"Results, Subacute - full histo",mouse [3]; 40 ug/kg,No Effects
same,"Results, Subacute - full histo",mouse [3]; 400 ug/kg,D14 Spleen wt slightly
same,"Results, Neuropharm profile",mouse [4]; 10 ug/kg,No Effects
same,"Results, Neuropharm profile",mouse [4]; 100 ug/kg,No Effects
same,"Results, Diuretic Assay",rat; 10 ug/kg,No Effects
same,"Results, Diuretic Assay",rat; 100 ug/kg,No Effects
same,"Results, Barbit Sleep Potent",mouse [5]; 10 ug/kg,No Effects
same,"Results, Barbit Sleep Potent",mouse [5]; 100 ug/kg,No Effects
same,"Results, Cardiovasc Effects","dog; 10 ug/kg, bolus",No Effects
same,"Results, Cardiovasc Effects",dog; up if NOEL to 100 ug/kg,No Effects
same,toxic effects,various animal models,no toxic effects
C[C@H](CCC(=O)NCCC[N+](C)(C)CCCS(=O)(=O)[O-])[C@H]1CC[C@H]2[C@@H]3[C@H](O)C[C@@H]4C[C@H](O)CC[C@]4(C)[C@H]3C[C@H](O)[C@]12C [CHAPS],toxicity to T-cells,T-cells; detergents for solubilization of HLA-DR2,toxic to T-cells
"CCCCCCCCO[C@@H]1O[C@H](CO)[C@@H](O)[C@H](O)[C@H]1O [octylglucoside, octyl glucoside]",occupancy of the MHC molecules (proportion of the molecules complexed with peptide),HLA-DR2,40%
Pluronic F-127,toxicity to T-cells,T-cells,toxic to T-cells
CCCCCCCC/C=C\CCCCCCCC(=O)OCCOCC(OCCO)C1OCC(OCCO)C1OCCO (stereo not shown) [Tween-80],occupancy of the MHC molecules (proportion of the molecules complexed with peptide),HLA-DR2,76%
